In patent US9261497B2, “Method of treating cancer with modulators of SCFSkp2” (New York University, priority 2012, dated 2016):

What was measured:
MCF-7 = experiment: Cell cycle FACS analysis, MCF-7; assay type: cell-based, human
Method: (§1) Whole cell extracts were prepared and immunoblotted as previously described Dorrello et al., “S6K1- and betaTRCP-mediated Degradation of PDCD4 Promotes Protein Translation and Cell Growth,” Science 314:467-471 (2006), which is hereby incorporated by reference in its entirety. For knockdown of Skp2 or p27, shRNAs were induced with 2 ng/ml doxycycline for 48 hours, with the last 16 hours co-treated with 0.1% Vehicle or 10 μM inhibitors as indicated. For cycloheximide chase, cells were pretreated 16 h with 0.1% Vehicle or 10 μM inhibitors, followed by 20 ng/ml cycloheximide (Sigma) and whole cell extracts collected for each time point. 20 ng/ml cycloheximide (Sigma) was added to each plate and whole cell extract was collected for each time point. Scanning densitometry was performed on immunoblots using Image J software. […] 1×10^6 cells were fixed in 70% ethanol for 2 h, treated with 200 μg/ml RNase A (Invitrogen) for 30 minutes, and stained with 20 μg/ml Propidium Iodine (Sigma). All samples were assayed in triplicates. Signal was detected using the Becton Dickson LSRII flow cytometer and cell cycle profiles were analyzed with FloJo.

MDM2 = target: T1, MDM2 (Homo sapiens, UniProt Q00987); experiment: MDM2 p53 in vitro ubiquitylation counter-screen; assay type: biochemical; conditions: 50 μM inhibitor
T1 construct: purchased Boston Biochem
T1 sequence (Q00987 whole entry, species assumed): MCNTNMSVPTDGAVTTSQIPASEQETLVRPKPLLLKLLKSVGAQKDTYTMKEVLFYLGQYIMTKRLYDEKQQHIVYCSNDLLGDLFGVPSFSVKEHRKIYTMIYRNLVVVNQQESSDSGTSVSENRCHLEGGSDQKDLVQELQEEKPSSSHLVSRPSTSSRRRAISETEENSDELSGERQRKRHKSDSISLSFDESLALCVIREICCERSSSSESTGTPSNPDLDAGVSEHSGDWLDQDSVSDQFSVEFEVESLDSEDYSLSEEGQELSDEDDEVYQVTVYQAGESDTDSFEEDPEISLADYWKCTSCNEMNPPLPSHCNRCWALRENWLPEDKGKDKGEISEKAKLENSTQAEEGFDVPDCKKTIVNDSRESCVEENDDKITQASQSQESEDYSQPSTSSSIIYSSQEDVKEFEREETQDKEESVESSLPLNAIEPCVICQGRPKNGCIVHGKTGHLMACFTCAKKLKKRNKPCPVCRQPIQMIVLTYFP
Method: p53 ubiquitylation was carried out with the p53 Ubiquitylation Kit (Boston Biochem) following manufacturers protocol. Immunoblotting was performed using mouse monoclonal p53 (Santa Cruz) and rabbit polyclonal MDM2 (Santa Cruz).

SCF-βTrCP = experiment: β-TrCP PDCD4 in vitro ubiquitylation counter-screen; assay type: biochemical; conditions: 50 μM inhibitor
Method: In vitro reconstituted assays were performed as previously described (Dorrello et al., “S6K1- and betaTRCP-mediated Degradation of PDCD4 Promotes Protein Translation and Cell Growth,” Science 314:467-471 (2006), which is hereby incorporated by reference in their entirety) with the exceptions of the use of (1) unlabeled proteins (wild-type and mutant Skp2 and Cks1, p27, Flag-βTrCP, and HA-PDCD4) generated by in vitro transcription-translation (TNT T7 Coupled Reticulocyte Lysate System, Promega); (2) chain elongation with non-methylated ubiquitin; and (3) immunoblotting to detect poly-ubiquitylation. The following reagents were obtained from Boston Biochem: UBE1, His-UbcH3, His-UbcH5c, Ubiquitin, and Ubiquitin Aldehyde. Additional reagents include CDK2/CyclinE1 (Sigma-Aldrich), S6K (Invitrogen), Okadaic acid (Sigma), and DMSO (Sigma-Aldrich). For ubiquitin charging, UBE1 (100 nM) and His-UbcH3 (10 ng/μl) were incubated with ubiquitin (2.5 μg/μl), ATP (2 mM), and 10 μM […] of inhibitors or Vehicle control for 60 min at 30° C. Reactions were stopped in nondenaturing 2× Sample Buffer, with the addition of 10% Beta-mercaptoethanol as indicated, and analyzed by Western blotting.

Skp2-p27 interaction = target: T2, Skp2-p27 interaction (Homo sapiens, UniProt P61024+Q13309); experiment: p27 binding to HA-Skp2 (HA-immunoprecipitation); conditions: for p27 binding to Skp2: 10 μM, HA-Skp2 and Cks1 pretreated before p27-pT187, without ubiquitylation
T2 construct: made in house; host or cells: cell-free: rabbit reticulocyte lysate (TNT T7 Coupled Reticulocyte Lysate System, Promega) from pcDNA3.1 plasmids
T2 sequence (Q13309 whole entry): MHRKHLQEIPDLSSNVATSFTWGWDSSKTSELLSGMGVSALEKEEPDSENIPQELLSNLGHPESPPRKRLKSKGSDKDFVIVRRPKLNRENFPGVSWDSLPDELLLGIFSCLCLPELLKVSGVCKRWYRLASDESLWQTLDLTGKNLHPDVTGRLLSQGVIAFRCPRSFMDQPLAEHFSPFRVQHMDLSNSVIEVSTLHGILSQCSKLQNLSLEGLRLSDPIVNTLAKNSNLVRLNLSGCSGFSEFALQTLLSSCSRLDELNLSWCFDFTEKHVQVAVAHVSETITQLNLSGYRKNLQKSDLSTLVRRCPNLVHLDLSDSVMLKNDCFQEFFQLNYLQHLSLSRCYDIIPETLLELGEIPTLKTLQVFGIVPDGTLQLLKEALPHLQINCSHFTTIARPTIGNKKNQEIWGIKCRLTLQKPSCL
T2 sequence (P61024 whole entry): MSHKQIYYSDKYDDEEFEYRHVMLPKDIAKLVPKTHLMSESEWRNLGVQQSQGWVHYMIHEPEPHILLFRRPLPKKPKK
T2 sequence (P63208 whole entry partner): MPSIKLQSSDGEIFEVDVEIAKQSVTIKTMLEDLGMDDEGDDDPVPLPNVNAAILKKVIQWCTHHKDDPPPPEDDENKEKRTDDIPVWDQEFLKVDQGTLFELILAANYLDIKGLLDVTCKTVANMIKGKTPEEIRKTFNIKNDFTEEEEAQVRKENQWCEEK
T2 sequence (Q13616 whole entry partner): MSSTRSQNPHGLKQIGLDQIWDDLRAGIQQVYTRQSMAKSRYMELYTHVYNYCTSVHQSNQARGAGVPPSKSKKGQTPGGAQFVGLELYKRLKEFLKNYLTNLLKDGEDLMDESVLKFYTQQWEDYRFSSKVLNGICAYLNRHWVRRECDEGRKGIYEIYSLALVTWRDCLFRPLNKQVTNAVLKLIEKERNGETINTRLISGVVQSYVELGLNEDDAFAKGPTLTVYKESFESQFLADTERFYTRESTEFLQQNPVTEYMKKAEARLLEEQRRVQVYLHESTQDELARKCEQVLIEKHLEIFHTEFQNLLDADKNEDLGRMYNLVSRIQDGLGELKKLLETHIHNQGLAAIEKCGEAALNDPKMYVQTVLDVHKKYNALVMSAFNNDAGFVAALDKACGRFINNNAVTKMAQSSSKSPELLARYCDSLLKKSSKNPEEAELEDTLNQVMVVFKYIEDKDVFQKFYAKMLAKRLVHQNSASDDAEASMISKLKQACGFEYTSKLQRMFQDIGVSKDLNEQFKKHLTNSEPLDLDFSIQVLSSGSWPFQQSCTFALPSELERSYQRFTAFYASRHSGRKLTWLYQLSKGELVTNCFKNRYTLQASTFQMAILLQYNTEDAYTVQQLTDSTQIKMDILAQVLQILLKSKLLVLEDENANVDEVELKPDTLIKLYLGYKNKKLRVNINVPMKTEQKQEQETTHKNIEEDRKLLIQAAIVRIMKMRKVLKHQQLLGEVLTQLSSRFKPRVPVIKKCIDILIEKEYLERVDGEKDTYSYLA
T2 sequence (P62877 whole entry partner): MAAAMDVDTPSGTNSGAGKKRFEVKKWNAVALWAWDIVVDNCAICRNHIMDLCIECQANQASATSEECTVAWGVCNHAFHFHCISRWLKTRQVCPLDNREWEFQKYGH
Method: (§2) In vitro ubiquitylation assays were incubated with anti-HA affinity matrix (Roche) in IP buffer (50 mM Tris pH 7.6, 150 mM NaCl, 0.1% NP40, and Roche Complete EDTA-free protease tablet) for 16 h at 4° C. Beads were washed 3× with IP buffer and eluted with 2×SDS Sample Buffer (Boston Bioproducts) and 10% Beta-mercaptoethanol. For binding without ubiquitylation, HA-Skp2 IVT (10 μl) and Cks1 IVT (10 μl) were preincubated with anti-HA affinity matrix in IP buffer for 2 hours, with the addition of p27 kinase reaction (10 μl) for another 16 h incubation at 4° C. All reactions were analyzed after SDS/PAGE by western blotting. Where indicated, Skp2 and Cks1 were pretreated with 10 μM inhibitors for 30 minutes. Kinase reactions were performed with p27 IVT (10 μl) and 0.5 μg/ul CyclinE/CDK2 in kinase buffer (50 mM Tris HCL pH 7.5, 10 mM MgCl2, 2 mM ATP, 2.5 μM Okadaic Acid, and 0.6 mM DTT) at 30° C. for 1 h.

T47D = experiment: Cell cycle FACS analysis, T47D; assay type: cell-based, human
Method: as §1

CyclinE/CDK2 = target: T3, CyclinE/CDK2 (Homo sapiens, UniProt P24941); experiment: CyclinE/CDK2 kinase assay (phospho-T187 p27); assay type: biochemical; conditions: 50 μM inhibitor
T3 construct: purchased Sigma-Aldrich
Method: as §2

501 Mel cells = experiment: Cell cycle FACS analysis, 501 Mel; assay type: cell-based, human; conditions: shEmpty 501 Mel; 10 μM for 16 hours
Method: Whole cell extracts were prepared and immunoblotted as previously described Dorrello et al., “S6K1- and betaTRCP-mediated Degradation of PDCD4 Promotes Protein Translation and Cell Growth,” Science 314:467-471 (2006), which is hereby incorporated by reference in its entirety. For knockdown of Skp2 or p27, shRNAs were induced with 2 ng/ml doxycycline for 48 hours, with the last 16 hours co-treated with 0.1% Vehicle or 10 μM inhibitors as indicated. For cycloheximide chase, cells were pretreated 16 h with 0.1% Vehicle or 10 μM inhibitors, followed by 20 ng/ml cycloheximide (Sigma) and whole cell extracts collected for each time point. Scanning densitometry was performed on immunoblots using Image J software. For cell cycle analysis, cells were treated with 0.1% Vehicle or 10 μM inhibitors for 16 h. 1×10^6 cells were fixed in 70% ethanol for 2 h, treated with 200 μg/ml RNase A (Invitrogen) for 30 minutes, and stained with 20 μg/ml Propidium Iodine (Sigma). All samples were assayed in triplicates. Signal was detected using the Becton Dickson LSRII flow cytometer and cell cycle profiles were analyzed with FloJo.

ECC-1 cells = experiment: ECC-1 cytotoxicity (trypan blue exclusion); assay type: cell-based; conditions: 10 μM, 48 h

O=C(O)COc1ccc(Br)cc1C=C1SC(=S)N(Cc2cccnc2)C1=O [Compound C1]
Increase in G2-M phase (MCF-7; 5 μM C1 for 16 hours): 43%
Reduction in G1 phase (MCF-7; 5 μM C1 for 16 hours): 35%
MDM2 activity (p53 poly-ubiquitylation) (MDM2): not blocked
β-TrCP activity (PDCD4 poly-ubiquitylation) (SCF-βTrCP): not blocked
p27 binding to Skp2 (Skp2-p27 interaction): reduce p27 binding to Skp2
Amount of p27 interacting with Skp2 (Skp2-p27 interaction; 50 μM, HA-immunoprecipitates of ubiquitylation assays): reduced the amount of p27
G1 phase (T47D; 5 μM for 16 hours): an increase in G1 phase
S phase (T47D; 5 μM for 16 hours): a decrease in S phase
CyclinE/CDK2 activity (phospho-T187 p27) (CyclinE/CDK2): not blocked
S phase cells (501 Mel cells): a decrease in S phase cells

COC(=O)C1=C(C)N(c2ccc(Br)cc2)C(=O)C1=Cc1ccccc1O [Compound C2]
Cellular phenotype (MCF-7): no significant cellular phenotype
MDM2 activity (p53 poly-ubiquitylation) (MDM2): not blocked
Cytotoxicity (ECC-1 cells): not cytotoxic
β-TrCP activity (PDCD4 poly-ubiquitylation) (SCF-βTrCP): not blocked
p27 binding to Skp2 (Skp2-p27 interaction): reduce p27 binding to Skp2
Cellular phenotype (T47D): no significant cellular phenotype
CyclinE/CDK2 activity (phospho-T187 p27) (CyclinE/CDK2): not blocked
S phase cells (501 Mel cells): a decrease in S phase cells

O=C(O)COc1ccc(C=C2SC(=O)N(CC(=O)c3ccc(Cl)cc3)C2=O)cc1 [Compound C16]
Cellular phenotype (MCF-7): no significant cellular phenotype
MDM2 activity (p53 poly-ubiquitylation) (MDM2): not blocked
Cell death (ECC-1 cells): 77%
β-TrCP activity (PDCD4 poly-ubiquitylation) (SCF-βTrCP): not blocked
p27 binding to Skp2 (Skp2-p27 interaction): reduce p27 binding to Skp2
Cellular phenotype (T47D): no significant cellular phenotype
CyclinE/CDK2 activity (phospho-T187 p27) (CyclinE/CDK2): not blocked
S phase cells (501 Mel cells): a decrease in S phase cells

O=C(NN=Cc1cc(Br)cc(Br)c1O)C(=Cc1ccccc1O)NC(=O)c1ccccc1 [Compound C20]
Cellular phenotype (MCF-7): no significant cellular phenotype
MDM2 activity (p53 poly-ubiquitylation) (MDM2): not blocked
Cytotoxicity (ECC-1 cells): not cytotoxic
β-TrCP activity (PDCD4 poly-ubiquitylation) (SCF-βTrCP): not blocked
p27 binding to Skp2 (Skp2-p27 interaction): reduce p27 binding to Skp2
Cellular phenotype (T47D): no significant cellular phenotype
CyclinE/CDK2 activity (phospho-T187 p27) (CyclinE/CDK2): not blocked
S phase cells (501 Mel cells): a decrease in S phase cells
